According to patent US20260364072A1, “METHODS FOR PROMOTING EXPANSION OF HUMAN CD34+ CELLS IN VIVO AND FOR PROMOTING NEURAL REGENERATION” (THE REGENTS OF THE UNIVERSITY OF CALIFORNIA, priority 2023, published 2026):

What was measured:
[1] = NHP single-dose toxicokinetic study; assay type: in vivo, cynomolgus monkeys
Procedure: Pre-IND PD and toxicokinetic (TK) studies (FIG. 4D) were enabled by scalable Rebecsinib synthesis^34 and development of an optimized formulation for in vivo biodistribution (5% w/v EtOH, 5% w/v Kolliphor HS15 in 0.9% Sodium Chloride). In PK studies, Rebecsinib was detectable in rat, rabbit, and non-human primate (NHP) plasma following IV bolus administration. In rat TK studies, Rebecsinib was quantifiable up to 1-hour post-dose at 1 mg/kg and up to 4 hours post-dose at 3, 5, and 8 mg/kg (FIG. 4E). […] Rebecsinib T1/2 values were 0.342, 0.447, 0.313, and 0.530 hours at 1, 3, 5, and 8 mg/kg, respectively. […] Following 3, 10, and 20 mg/kg boluses, Rebecsinib was quantifiable in plasma 1 hour post-dose and could be detected up to 8 hours post-dosing with 40 mg/kg (FIG. 4F). […] Following 3, 10, 15, and 20 mg/kg of Rebecsinib, quantifiable plasma concentrations of Rebecsinib were observed through 8 hrs post-dose (FIG. 4G).
(FIG. 29D) Schematic diagram outlining multispecies toxicokinetic (TK) and pharmacodynamic studies in mammalian species treated in vivo with a single dose of Rebecsinib. Toxicokinetic analyses were performed in rats (n=6 per sex, per group), rabbits (n=2 per sex, per group), and non-human primates (NHPs, n=1 per sex, per group) and pharmacodynamic splice isoform quantification studies were performed in peripheral blood mononuclear cells (PBMCs) from NHP.
(FIG. 29G, FIG. 29H) For in vivo TK and complementary pharmacodynamic studies, NHPs were given a single injection of Rebecsinib at 3-20 mg/kg, or vehicle control, and blood samples were drawn at regular intervals to determine plasma concentrations (FIG. 29G) of the compound along with splice isoform biomarker assays to quantify MCL1 exon skipping in PBMCs isolated from treated animals (FIG. 29H, n=2 animals per group).
Single-dose TK studies were performed in Sprague Dawley rats (Charles River Labs, South San Francisco, CA), New Zealand white rabbits (BASi/Inotiv, West Lafayette, IN), and cynomolgus monkeys (BASi/Inotiv). Rat and rabbit studies included toxicology analyses, quantification of plasma levels of Rebecsinib, and necropsies to evaluate organ integrity after treatment. For NHP studies, health and ophthalmological evaluations were performed before and after dosing with Rebecsinib, and blood samples were collected for quantification of plasma levels of Rebecsinib and biomarker studies in PBMCs from treated and control animals. All monkeys were returned to the animal colony after the end of the observation period. Toxicokinetic values including mean plasma concentrations and t1/2 values were calculated according to CRO-approved protocols (Charles River and BASi).

[2] = system: splicing reporter in KG-1a AML cells; experiment: Lentiviral dual fluorescence (RFP/GFP) splicing reporter in KG-1a cells; assay type: cell-based, human; conditions: 24 hr
Source text: (FIG. 29A) Quantification of cell viability (left panel) and splicing modulation (RFP/GFP ratios, right panel) by flow cytometry analyses of the human AML cell line (KG-1a) stably transduced with a lentiviral dual-fluorescence splicing reporter vector and treated with increasing concentrations of Rebecsinib.
For generation of stably transduced splicing reporter cell lines, a previously described splicing reporter construct^31 was cloned into a lentiviral vector backbone.^52 KG-1a cells were transduced with the dual-fluorescent lentiviral splicing reporter vector, treated with various concentrations of Rebecsinib (3-fold serial dilutions from 3 μM to 4 nM) for 24 hr, washed followed by DAPI staining, and analyzed by flow cytometry for cell viability and RFP/GFP fluorescence intensity. Results were from duplicate wells of each condition. Viability of cells treated with DMSO (0.5% final concentration) was set as 100%. Nonlinear regression curve fit analysis was carried out using Prism software (GraphPad) to determine ECso values for viability and mean fluorescence intensity (MFI) of RFP and GFP.

[3] = system: human CD45+ADAR1-GFP+ cells and CD45+CD3+ADAR1-GFP+ cells; experiment: aNBM SAK148 PDX mice, flow cytometry; assay type: in vivo, human cells in NSG-SGM3 mice; conditions: 10 mg/kg, IV, BIW×2
Procedure: Aged normal bone marrow (aNBM) PDX mouse models SAK148, which were established with 80-100K ADAR1-reporter transduced CD34+ cells by IV injection into NSG-SGM3 mice at the age of 5-6 weeks. When the models were ready, the mice were treated with either vehicle or rebecsinib (10 mg/kg, IV, BIW×2). The mice were sacrificed upon completion of the dosing plan, and single cells from PB, SP, and BM were collected and stained with mAbs for CD45, CD3, CD14, and CD19.

MCL1 transcripts = experiment: MCL1-S/L ratio by splice isoform-specific qRT-PCR in primary CD34+ MF HPC and LSC; assay type: cell-based, human; conditions: 0.1 μM, compared with vehicle, short-term culture, no stroma
ADAR1p150 = ADAR1p150 protein by intracellular flow cytometry in high-risk MF samples; assay type: cell-based, human; conditions: 72 hr
Procedure: (FIG. 28C) Flow cytometry-based quantification of ADAR1 p150 protein expression in high-risk MF samples after in vitro transduction of primary CD34^+ cells with ADAR1 nanoluc-GFP reporter or vector control (pCDH) followed by treatment with vehicle control (DMSO) or Rebecsinib (72 hr).
Flow cytometry for stem and progenitor cell surface antibody staining was performed as previously described.^14 For phospho-flow, a subset of samples was fixed and permeabilized, then blocked and stained with APC-conjugated ADAR1p150 antibody (cat ab269444, 1:25) and pSTAT3 APC (cat 17-9033-42, 1:10) (Table S2). Fractions were analyzed with the BD LSR FORTESSA™ (Sanford Consortium for Regenerative Medicine Stem Cell Core) and FLOWJO™ software (TreeStar, Ashland, OR).

CC[C@H](OC)[C@@H](C)[C@H]1O[C@@H]1[C@@H](O)[C@H](C)/C=C/C=C(\C)[C@H]1OC(=O)C[C@H](O)CC[C@@](C)(O)[C@@H](OC(C)=O)/C=C/[C@@H]1C [Rebecsinib]
tolerability [1]: favorable tolerability | diarrhea ([1]; 20 mg/kg, resolved within 24 hours with no treatment and no sequelae): one female NHP in the 20 mg/kg treatment group developed diarrhea | quantifiable plasma concentrations through time post-dose ([1]; IV bolus, 3, 10, 15, and 20 mg/kg): up to 8 hrs | peak (Cmax) levels, male vs female ([1]; IV bolus, all dose levels): comparable between male and females | total (AUClast) levels, male vs female ([1]; IV bolus, all dose levels): comparable between male and females | half-life ([1]; cynomolgus monkey, plasma, IV bolus, read-out: half-life (t1/2)): 37.2 to 66 min | RFP to GFP reporter expression [2]: increased RFP to GFP reporter expression in a dose-dependent manner | CD45+CD3+GFP+ cells in PB, SP, and BM [3]: spares the cell populations | CD45+GFP+ cells in PB, SP, and BM [3]: spares the cell populations | MCL1-S/L transcript ratio (MCL1 transcripts): elevated expression of pro-apoptotic MCL1-short (S) compared with anti-apoptotic MCL1-long (L) transcripts | ADAR1p150 protein expression (ADAR1p150): reduced ADAR1p150 protein expression
